Where “and” joins values, the source holds several entries; their conditions need not be identical. Equal entries are not always repeated.
System: NIH 3T3 cells
Experiment: Cationic liposome-mediated transfection of cultured cells, luciferase assay
Format: cell-based, murine
Conditions: for Luciferase activity, Average / Luciferase activity, Trial 1 to Trial 4: 48 hours; for Luciferase activity, Trial 1 to Trial 4: individual trials
Description: In one embodiment, an appropriate mass of cationic lipid and the neutral lipid dioleoylphosphatidylethanolamine (DOPE) was added as solutions in chloroform to 1.9 mL sample vials to yield the desired molar ratio of cationic lipid:DOPE. The chloroform was removed via rotary evaporation at 37° C. The resulting thin lipid films were placed under vacuum overnight to insure that all traces of solvent have been removed. The lipid mixture was resuspended in 1 mL sterile water at 25° C. until the film is hydrated, and then vortex mixed to afford an emulsion. For the in vitro experiments, these emulsions were formulated as a cationic lipid concentration of 1 mM. For the in vivo experiments, the emulsions were formulated at a cationic lipid concentration of 3 mM.
NIH 3T3 cells were obtained from ATCC (CRL 1658), cultured in Dulbecco's Modified Eagle's Medium with ten percent calf serum, and plated on standard 24 well tissue culture plates 24 hours prior to transfection. Cells were approximately eighty percent confluent at the time of transfection.
NIH 3T3 cells were plated onto 24 well tissue culture plates as described in section 6.1.10. The growth media was removed via aspiration and the cells were washed once with 0.5 mL PBS/well. The liposome/transition metal/nucleic acid solutions were formed through sequential addition of appropriate amounts of DMEM (without serum), the liposome solution (1:1 N,N-[Bis(2-hydroxyethyl)]-N-methyl-N-[2,3-bis(tetradecanoyloxy)propyl] ammonium chloride (DMDHP):DOPE, zinc chloride, and the plasmid DNA pCMV.FOX.Luc.2. The amount of liposome solution used depended on the desired cationic lipid to DNA phosphate ratio. The addition of these substances was followed by thorough vortex mixing and incubation for 15 minutes at room temperature. A 200 microliter aliquot of the resultant transfection complex was added to each well (1 microgram DNA/well, n=4) and the cells were incubated for 4 hours, at 37° C. At this time, 500 microliters of DMEM+10% calf serum/well was added and the cells cultured for approximately 48 hours prior to lysis and analysis. The sample transfections were subsequently repeated a minimum of three times prior to lysis and analysis.
The presently claimed invention describes a new method using a combination of cationic lipid, transition metal enhancer and a nucleic acid of interest for gene delivery. The present invention provides a method that may enhance gene expression by improving the efficiency of gene delivery. This change in gene expression can be quantitated using various assays, such as the luciferase assay. de Wet et al., Molec. Cell Biol. 7:725, 1987. In in vitro experiments described herein in which a cationic lipid/transition metal enhancer/nucleic acid complex was used, the cells were lysed, using a lysis buffer, 48 hours post administration of the pCMV.FOX.Luc-2 containing solution. The lysis buffer contained 100 mM K2PO4 pH 7.0, 1 mM dithiothreitol, and 1% Triton X-100. A 25 μl aliquot of the lysate was analyzed for luciferase activity (de Wet et al., Molec. Cell Biol. 7:725, 1987) using a Monolight 2010 luminometer (Analytical Luminescence Laboratories). Accordingly, luciferase light emissions from each aliquot of the lysis homogenate were measured over a ten second period. Activity was expressed as relative light units, values collectively representing the assay conditions, luciferase concentration, luminometer photomultiplier tube sensitivity and background. Using well known techniques, the luciferase light units may be converted, for example, to picograms of luciferase protein. See, e.g., Felgner et al., U.S. Pat. No. 5,580,899 at Example 13.
To perform this study, cationic lipid/nucleic acid/zinc mixtures were prepared by mixing appropriate amounts of serum-free DMEM, cationic liposomes, zinc chloride and pCMV.FOX.Luc.2 plasmid DNA in a polystyrene tube. […]

[1] = charge ratio 0.5, ZnCl2 1000 μM
[2] = charge ratio 0.75, ZnCl2 0.1 μM
[3] = charge ratio 0.75, ZnCl2 100 μM
[4] = charge ratio 0.75, ZnCl2 1000 μM

[Cl-].[Cl-].[Zn+2] [ZnCl2, zinc chloride]
Luciferase activity, Average (charge ratio 0.5, ZnCl2 0.1 μM): 357320 relative light units
Luciferase activity, Average (charge ratio 0.5, ZnCl2 1 μM): 289649.8 relative light units
Luciferase activity, Average (charge ratio 0.5, ZnCl2 10 μM): 296498.3 relative light units
Luciferase activity, Average (charge ratio 0.5, ZnCl2 100 μM): 690512.3 relative light units
Luciferase activity, Average [1]: 44053.75 relative light units
Luciferase activity, Average [2]: 528118.8 relative light units
Luciferase activity, Average (charge ratio 0.75, ZnCl2 1 μM): 141950 relative light units
Luciferase activity, Average (charge ratio 0.75, ZnCl2 10 μM): 397689.3 relative light units
Luciferase activity, Average [3]: 334007.5 relative light units
Luciferase activity, Average [4]: 298625.5 relative light units
Luciferase activity, Average (charge ratio 1, ZnCl2 0.1 μM): 931446.8 relative light units
Luciferase activity, Average (charge ratio 1, ZnCl2 1 μM): 835699.8 relative light units
Luciferase activity, Average (charge ratio 1, ZnCl2 10 μM): 1366067 relative light units
Luciferase activity, Average (charge ratio 1, ZnCl2 100 μM): 359188.5 relative light units
Luciferase activity, Average (charge ratio 1, ZnCl2 1000 μM): 414392 relative light units
Luciferase activity, Average (charge ratio 2, ZnCl2 0.1 μM): 677663.5 relative light units
Luciferase activity, Average (charge ratio 2, ZnCl2 1 μM): 747069.5 relative light units
Luciferase activity, Average (charge ratio 2, ZnCl2 10 μM): 1215879 relative light units
Luciferase activity, Average (charge ratio 2, ZnCl2 100 μM): 827479.8 relative light units
Luciferase activity, Average (charge ratio 2, ZnCl2 1000 μM): 109543.8 relative light units
enhancement of in vitro transfection by added zinc (depending on the cationic lipid to nucleic acid charge ratio): two to forty
Luciferase activity, Trial 1 to Trial 4 (charge ratio 0.5, ZnCl2 0.1 μM): 487868 relative light units and 426369 relative light units and 256897 relative light units and 258146 relative light units
Luciferase activity, Trial 1 to Trial 4 (charge ratio 0.5, ZnCl2 1 μM): 385049 relative light units and 200471 relative light units and 304108 relative light units and 268971 relative light units
Luciferase activity, Trial 1 to Trial 4 (charge ratio 0.5, ZnCl2 10 μM): 325001 relative light units and 323001 relative light units and 250110 relative light units and 287881 relative light units
Luciferase activity, Trial 1 to Trial 4 (charge ratio 0.5, ZnCl2 100 μM): 351939 relative light units and 252969 relative light units and 294018 relative light units and 1863123 relative light units
Luciferase activity, Trial 1 to Trial 4 [1]: 43835 relative light units and 40236 relative light units and 59395 relative light units and 32749 relative light units
Luciferase activity, Trial 1 to Trial 4 [2]: 613179 relative light units and 556656 relative light units and 437658 relative light units and 504982 relative light units
Luciferase activity, Trial 1 to Trial 4 (charge ratio 0.75, ZnCl2 1 μM): 127339 relative light units and 236302 relative light units and 123913 relative light units and 80246 relative light units
Luciferase activity, Trial 1 to Trial 4 (charge ratio 0.75, ZnCl2 10 μM): 455299 relative light units and 465986 relative light units and 362168 relative light units and 307304 relative light units
Luciferase activity, Trial 1 to Trial 4 [3]: 404983 relative light units and 351094 relative light units and 358591 relative light units and 221362 relative light units
Luciferase activity, Trial 1 to Trial 4 [4]: 335343 relative light units and 257292 relative light units and 374511 relative light units and 227356 relative light units
Luciferase activity, Trial 1 to Trial 4 (charge ratio 1, ZnCl2 0.1 μM): 901184 relative light units and 862221 relative light units and 1113520 relative light units and 848862 relative light units
Luciferase activity, Trial 1 to Trial 4 (charge ratio 1, ZnCl2 1 μM): 942667 relative light units and 864670 relative light units and 799992 relative light units and 735470 relative light units
Luciferase activity, Trial 1 to Trial 4 (charge ratio 1, ZnCl2 10 μM): 2145687 relative light units and 1433861 relative light units and 1202748 relative light units and 681970 relative light units
Luciferase activity, Trial 1 to Trial 4 (charge ratio 1, ZnCl2 100 μM): 262768 relative light units and 379927 relative light units and 447492 relative light units and 346567 relative light units
Luciferase activity, Trial 1 to Trial 4 (charge ratio 1, ZnCl2 1000 μM): 437998 relative light units and 443459 relative light units and 502263 relative light units and 273848 relative light units
Luciferase activity, Trial 1 to Trial 4 (charge ratio 2, ZnCl2 0.1 μM): 596911 relative light units and 685311 relative light units and 818392 relative light units and 610040 relative light units
Luciferase activity, Trial 1 to Trial 4 (charge ratio 2, ZnCl2 1 μM): 661803 relative light units and 814409 relative light units and 754168 relative light units and 757898 relative light units
Luciferase activity, Trial 1 to Trial 4 (charge ratio 2, ZnCl2 10 μM): 1498720 relative light units and 1238992 relative light units and 1207690 relative light units and 918114 relative light units
Luciferase activity, Trial 1 to Trial 4 (charge ratio 2, ZnCl2 100 μM): 768327 relative light units and 880621 relative light units and 941720 relative light units and 719251 relative light units
Luciferase activity, Trial 1 to Trial 4 (charge ratio 2, ZnCl2 1000 μM): 199493 relative light units and 48657 relative light units and 189902 relative light units and 123 relative light units

From patent publication US6624149B2, “Method for nucleic acid transfection of cells” (Genteric, Inc., priority 2000, dated 2003)
